Results taken from publication PMC11193748 (Communications Biology, 2024).
Like-named read-outs stand apart in the source and are kept apart here.

Tests used:
[1] = target: T1, LcsG (Purpureocillium lilacinum, UniProt A0A179H2P2); experiment: Michaelis-Menten enzyme kinetics of LcsG with leucinostatin substrates; assay type: biochemical, Purpureocillium lilacinum PLBJ-1; conditions: for Kcat/Km: compound as substrate of LcsG, from the Michaelis-Menten fit; for Kcat / Km: compound as substrate, 1 μM LcsG, 34 °C, 30 min, product formation by LC-MS, nonlinear regression, n = 3
T1 construct: pACYC-lcsG was generated by integrating the lcsG gene from the PLBJ-1 cDNA into the protein expression vector pACYCDuet-1; His6 (N); His6 (C); made in house; host or cells: E. coli ArcticExpress (DE3)
T1 sequence (A0A179H2P2 1-468): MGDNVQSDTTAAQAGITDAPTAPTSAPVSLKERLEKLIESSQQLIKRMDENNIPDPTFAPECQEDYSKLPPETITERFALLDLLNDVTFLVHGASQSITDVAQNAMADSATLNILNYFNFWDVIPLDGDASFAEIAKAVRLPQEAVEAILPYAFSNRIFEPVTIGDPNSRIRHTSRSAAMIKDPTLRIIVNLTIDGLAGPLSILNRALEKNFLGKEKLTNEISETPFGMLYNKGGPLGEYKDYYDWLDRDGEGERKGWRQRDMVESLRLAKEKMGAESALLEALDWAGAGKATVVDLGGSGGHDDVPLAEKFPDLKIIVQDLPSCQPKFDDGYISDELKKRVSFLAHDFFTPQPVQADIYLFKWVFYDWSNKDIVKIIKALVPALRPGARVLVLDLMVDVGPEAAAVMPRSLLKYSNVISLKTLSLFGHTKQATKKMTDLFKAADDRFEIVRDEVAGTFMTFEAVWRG
Method: The compounds were quantified by an external standard method and calibration curves were constructed using LeuA0 and LeuK3. In this study, LeuA0 was diluted to concentrations of 25, 50, 100, 250, and 500 nM. LeuK3 was also diluted to concentrations of 50, 100, 250, 500, and 1000 nM. Dilutions were prepared in MeCN, and calibration curves were constructed using the software GraphPad Prism 9.
The kinetic constants of LcsG were determined by the following approach: 1 μM LcsG was assayed against different specific concentrations of the substrates LeuA (2, 4, 8, 10, 20, 40, 80, 100, 120, 150, and 200 μM) and LeuK0 (4, 8, 10, 20, 40, 80, 100, 120, 140, and 160 μM). The initial rate of the reaction was measured by monitoring the formation of products (LeuA0 or LeuK3) at 34 °C for 30 min. The rates were plotted against substrate concentration using the Michaelis‒Menten kinetics equation by nonlinear regression analysis with the software GraphPad Prism 9, and Km and Kcat constants were generated from the resulting Michaelis‒Menten plot.
LC‒MS analyses were performed on an Agilent 1290 Infinity II HPLC with an Agilent Infinity Lab single quadrupole mass selective detector by using an Agilent Zorbax Eclipse Plus C18 reversed-phase column (2.1 × 100 mm, 2.7 μm). Water (A) with 0.1% (v/v) formic acid and acetonitrile (B) were used as the solvents at a flow rate of 0.25 ml min^−1. The substances were eluted with 10% (v/v) B for 1 min, subjected to a linear gradient from 10 to 100% (v/v) B for 12 min, washed with 100% solvent B for 5 min, and equilibrated with 5% solvent B for 10 min at a flow rate of 0.25 ml/min. The mass spectrometer was set in electrospray positive ion mode for ionization.

[2] = system: C. neoformans; conditions: cited from earlier work
[3] = system: P. infestans; conditions: cited from earlier work
[4] = system: C. neoformans H99
[5] = system: P. infestans

| Substance | Kcat/Km [1] | Kcat [1] | Km [1] | inhibitory effects on C. neoformans [2] | inhibitory effects on P. infestans [3] | inhibitory effects on P. infestans ([3]; previous studies) | growth inhibition, agar diffusion assay [4] | growth inhibition, agar diffusion assay [5] |
| --- | --- | --- | --- | --- | --- | --- | --- | --- |
| leucinostatin A [LeuA] | 65.39 M⁻¹ s⁻¹ | 0.00075 s⁻¹ | 11.5 µM | inhibitory effects | inhibitory effects | – | – | – |
| leucinostatin B [LeuB] | – | – | – | inhibitory effects | – | inhibitory effects | – | – |
| leucinostatin K0 [LeuK0] | 32.94 M⁻¹ s⁻¹ | 0.00624 s⁻¹ | 189 µM | – | – | – | inhibitory effects | inhibitory effects |
